Assay in all cases: NCI-60 cell line screen, 48 h
For assay [1], the system named is 786-0 renal.
Assay [2] deals with DU-145 prostate.
The subject of assay [3] is HCT-15 colon.
In assay [4] the test system is K-562 leukemia.
The test system of assay [5] is MDA-MB-231 breast.
Assay [6] relates to NCI-H226 lung.
The test system of assay [7] is RXF 393 renal.
In assay [8] the test system is SF-268 CNS.
In assay [9] the test system is SF-539 CNS.
The subject of assay [10] is SW-620 colon.

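Following 48 hours of exposure in 96-well plates, responses at five concentrations were used to interpolate endpoints linearly. At the GI50, growth is halved. TGI is the concentration that stops growth completely.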

Take `CN(C)CC(C(=O)Cc1ccccc1)c1ccccc1` (stereo not given): the GI50 in assay [1] is 2.18 µM; in assay [2], 1.73 µM; in assay [3] it was 1760 nM; in assay [4], 1620 nM; in assay [5], 3.48 µM; in assay [6], 13.8 µM. Further, the GI50 in assay [7] is 2390 nM; in assay [8], 8.25 µM; in [9] it was 1870 nM; in [10] it was 1790 nM. In addition, the TGI is 4.51 µM in assay [1]; 4.72 µM in assay [2]; 3.95 µM in [3]; > 100 µM in assay [4]; 11 µM in assay [5]; 38.3 µM in [6]. Further, the TGI was 4.86 µM in [7], 22.6 µM in assay [8], 3.99 µM in assay [9] and 3.59 µM in assay [10].

Turning to `COC(=O)C(CBr)CBr`, the TGI in assay [1] came to 8.91 µM; in [2], 31.9 µM; in [3], 3.75 µM; in [4], 4.29 µM; in assay [5], 4.36 µM; in [6], 28.1 µM. In addition, the TGI came to 4.86 µM in assay [7], 41.9 µM in assay [8], 13.2 µM in assay [9] and 3.11 µM in [10].

On to `Cc1[nH]c(-c2nc3ccccc3[nH]2)c(C)c1C(=O)NC(C)C1CCCCC1` (stereo not given), for which the GI50 was 14.8 µM in assay [1]; 14.6 µM in assay [2]; 4770 nM in assay [3]; 3450 nM in [4]; 10.4 µM in [5]; 13.9 µM in assay [6]. Further, the GI50 in [7] is 3170 nM; in assay [8], 11.9 µM; in assay [9] it was 6700 nM; in [10], 4950 nM. In addition, the TGI was 32.2 µM in [1]; 28.2 µM in [2]; 19.6 µM in assay [3]; > 100 µM in [4]; 29.4 µM in assay [5]; 37.3 µM in assay [6]. Moreover, the TGI in [7] turned out to be 11 µM; in assay [8], 30.9 µM; in assay [9] it was 19.6 µM; in assay [10], 18.3 µM.

For the molecule `Cc1ccc(C(SCC(N)C(=O)O)(c2ccccc2)c2ccccc2)cc1` (stereo not given), the GI50 was 0.175 µM in assay [1]; 0.181 µM in [2]; 218 nM in assay [3]; 48.5 nM in assay [4]; 0.0381 µM in assay [5]; 9.29 µM in assay [6]. The GI50 was 103 nM in [7], 0.0612 µM in assay [8], 33 nM in assay [9] and 43.7 nM in assay [10]. Further, the TGI was 2.43 µM in assay [1]; 0.466 µM in assay [2]; > 49.4 µM in assay [3]; > 100 µM in [4]; 0.571 µM in assay [5]; 42.9 µM in assay [6]. The TGI is > 100 µM in assay [7], 31.9 µM in [8], 1.08 µM in [9] and > 69.8 µM in assay [10].

Take `COc1cccc2c1C(=O)c1c(O)c3c(c(O)c1C2=O)C[C@@](O)(C(=O)CO)CC3OC1CC(O)C(O)C(C)O1` (stereo not given in full): the TGI was found to be 12.5 µM in assay [1]; 0.176 µM in [2]; 5.89 µM in assay [3]; 5.51 µM in assay [4]; 6 µM in assay [5]; 0.219 µM in assay [6]. In addition, the TGI in assay [7] came to 0.957 µM; in [8] it was 1.81 µM; in [9], 0.795 µM; in assay [10] it was 17.3 µM.

For the molecule `CN1CCN(Cc2ccc(NC(=O)c3cncc(C#Cc4cncc5nccnc45)c3)cc2C(F)(F)F)CC1`, the GI50 was 5.31 µM in assay [1]; 3.22 µM in [2]; 2510 nM in assay [3]; 5 nM in [4]; 0.869 µM in assay [5]; 0.628 µM in assay [6]. The GI50 in [7] is 2210 nM; in assay [8], 5.22 µM; in assay [9] it was 956 nM; in [10], 878 nM. In addition, the TGI in assay [1] is 12.5 µM; in [2] it was 9.6 µM; in assay [3] it was 12.9 µM; in assay [4], 9.86 µM; in assay [5], 4.59 µM; in assay [6], > 50 µM. The TGI in assay [7] amounted to 7.47 µM; in assay [8] it was 16.6 µM; in assay [9] it was 6 µM; in [10], 7.7 µM.

In the case of `c1cncc(C2Nc3cccc4cccc(c34)N2)c1`, the GI50 is > 100 µM in assay [1]; > 100 µM in assay [2]; 26300 nM in [3]; 28800 nM in assay [4]; 20.3 µM in assay [5]; 80.5 µM in [6]. The GI50 is 16800 nM in [7], 33.8 µM in assay [8], 39000 nM in assay [9] and 18400 nM in assay [10]. The TGI in assay [1] is > 100 µM; in [2], > 100 µM; in [3] it was > 100 µM; in assay [4], > 100 µM; in assay [5], 65.7 µM; in [6], > 100 µM. In addition, the TGI in [7] was 33 µM; in assay [8], > 100 µM; in [9] it was > 100 µM; in assay [10] it was 36.3 µM.

Turning to `C/C(=N\NC(=S)N1CCCCCCCCCCCC1)c1ccccn1`, the TGI worked out at 1.24 µM in assay [1]; 1.94 µM in assay [2]; 1.6 µM in assay [3]; 0.121 µM in assay [4]; 1.22 µM in assay [5]; 1.02 µM in assay [6]. Besides, the TGI in [7] worked out at 0.536 µM; in [8], 2.01 µM; in [9], 0.846 µM; in assay [10], 0.692 µM.
